Values joined by “and” are separate entries in the source; they are usually repeats but may differ in a detail not shown here. Identical values can stand only once.

The subject of the data set is Salmonella typhimurium TA98. Description: Ames test, strain TA98 (reading frame shift). The format is cell-based. The conditions noted are these: positive control at 2 µg/mL. On the technique in general: The Ames test detects mutagens through reverse mutation in bacteria.

As to `O=[N+]([O-])c1ccc2c(c1)Cc1ccccc1-2` [Extract 2-NF, 2-nitrofluorene], the “MOI (Multiplicity of induction compared to baseline)” value was 6.9 and 5.6.

(Values after patent EP4389106A1, “METHOD OF PREPARATION OF LIPOSOMAL C[…] […] AND LIPOSOMAL C[…] […]” (Aero-Bw K. Domagala Sp. Jawna, priority 2022, dated 2024).)
